According to US5387602A, “1.5-diphenyl-3-(N-hydroxycarbamoyloxyalkyl)pyrazoles” (Ortho Pharmaceutical Corporation, priority 1993, dated 1995):

Key:
[1] = biological target: T1, RBL-1 Cell Cyclooxygenase (Rattus norvegicus, UniProt Q63921); test: Procedure II: cyclooxygenase inhibition in disrupted RBL-1 cells (supernatant as enzyme source); assay type: biochemical
T1 construct: the supernatant was saved as the source of enzymes; endogenous in cells; host or cells: RBL-1 (rat basophilic leukemia cells), 10,000×g supernatant of homogenate
T1 sequence (Q63921 27-602): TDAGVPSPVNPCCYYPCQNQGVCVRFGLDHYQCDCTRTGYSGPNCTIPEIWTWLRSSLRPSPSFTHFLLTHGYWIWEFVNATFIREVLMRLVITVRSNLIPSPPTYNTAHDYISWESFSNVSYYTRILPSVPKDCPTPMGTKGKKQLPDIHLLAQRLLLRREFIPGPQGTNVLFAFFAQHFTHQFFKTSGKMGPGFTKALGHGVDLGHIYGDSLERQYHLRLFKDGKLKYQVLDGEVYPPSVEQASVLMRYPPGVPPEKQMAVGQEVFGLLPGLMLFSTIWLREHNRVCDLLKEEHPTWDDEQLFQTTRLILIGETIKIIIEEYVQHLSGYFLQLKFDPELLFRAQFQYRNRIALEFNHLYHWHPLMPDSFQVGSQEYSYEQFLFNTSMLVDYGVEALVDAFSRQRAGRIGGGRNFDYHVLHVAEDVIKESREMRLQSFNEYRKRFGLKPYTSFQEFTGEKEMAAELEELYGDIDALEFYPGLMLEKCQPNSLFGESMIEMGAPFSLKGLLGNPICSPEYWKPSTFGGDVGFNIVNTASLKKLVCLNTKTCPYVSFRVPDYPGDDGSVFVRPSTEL
Experimental: RBL-1 Cell 5-Lipoxygenase and Cyclooxygenase
Rat basophilic leukemia cells (RBL-1; 5×10^7 viable cells/mL) were disrupted by homogenization on ice (four 20 sec bursts) with a Brinkman polytron. Complete cell breakage was verified microscopically. The homogenate was then centrifuged at 10,000×g for 48 minutes at 4° C. The pellet was discarded and the supernatant was saved as the source of enzymes. The supernatant was pre-incubated for five minutes at 37° C. in the presence of 2 mM of CaCl2 and compound or vehicle (1% DMSO). The conversion of AA into 5-LO products was initiated by adding 10 μL (50 μCi) of 1-^14 C-AA to each tube and incubated at 37° C. for 20 minutes. The reaction was stopped by adjusting the pH of each sample to 3 to 3.5 with 2M formic acid. Samples were extracted with three volumes of chloroform to isolate the products of 5-LO formed during the reaction. Fractions were dried under nitrogen, then resuspended in 40 μL of chloroform and spotted onto silica gel HL plates. The plates were developed in A-9 solvent. The dried plates were analyzed using a Bioscan Imaging TLC scanner to determine the percentage of radiolabelled AA converted to 5-HETE in each sample.
(§1) In the following tables, the superscripts indicate the number of experiments and, unless otherwise stated, the dose at which % inhibition is reported is 3 MPK.

[2] = biological target: T2, 5-LO in intact RBL-1 cells (Rattus norvegicus, UniProt P12527); test: Procedure III: inhibition of 5-LO in intact RBL-1 cells; assay type: cell-based
T2 construct: 5-LO and CO in intact RBL-1 cells; endogenous in cells; host or cells: RBL-1 (rat basophilic leukemia cells), intact
T2 sequence (P12527 1-673): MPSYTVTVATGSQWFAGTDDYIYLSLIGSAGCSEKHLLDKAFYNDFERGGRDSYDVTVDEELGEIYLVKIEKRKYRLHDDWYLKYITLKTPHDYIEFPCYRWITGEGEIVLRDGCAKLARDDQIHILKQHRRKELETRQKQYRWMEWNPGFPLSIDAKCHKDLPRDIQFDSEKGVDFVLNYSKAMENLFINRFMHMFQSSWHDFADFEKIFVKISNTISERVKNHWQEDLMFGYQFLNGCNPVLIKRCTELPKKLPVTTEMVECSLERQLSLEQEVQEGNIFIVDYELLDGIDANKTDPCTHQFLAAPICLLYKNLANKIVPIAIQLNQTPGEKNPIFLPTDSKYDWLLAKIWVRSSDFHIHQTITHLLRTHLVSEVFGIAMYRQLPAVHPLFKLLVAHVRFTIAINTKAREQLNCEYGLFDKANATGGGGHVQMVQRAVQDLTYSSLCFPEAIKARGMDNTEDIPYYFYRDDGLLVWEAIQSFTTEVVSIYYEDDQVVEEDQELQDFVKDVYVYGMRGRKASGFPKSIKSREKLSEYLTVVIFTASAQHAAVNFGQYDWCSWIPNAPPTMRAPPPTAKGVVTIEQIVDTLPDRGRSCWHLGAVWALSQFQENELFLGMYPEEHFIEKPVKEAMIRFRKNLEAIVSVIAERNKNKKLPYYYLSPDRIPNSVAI
Experimental: The ability to inhibit 5-LO and CO in intact RBL-1 cells was also evaluated. RBL-1 cells were maintained in culture in minimal essential medium (Bio*Whittaker, Walkersville, Md.), containing 12.5% fetal calf serum, 10 mg/mL streptomycin, 10 I.U./mL penicillin G, […] gentamycin and 2 mM L-glutamine (Bio*Whittaker, Walkersville, Md.). Cells were collected by centrifugation, washed once in HBSS, and resuspended at a concentration of 1×10^5 cells/mL. Cells were incubated in the presence of vehicle or drug then centrifuged at 800×g for 10 minutes at 4° C. The supernatant was removed by aspiration and the cells were resuspended in 0.5 mL of HBSS. The reaction was started by the addition of 20 μg/mL of calcium ionophore A-23187 (mixed calcium and magnesium salts, Calbiochem, La Jolla, Calif.) and allowed to proceed for 15 minutes, then stopped by plunging the tubes into a slush ice bath. The conversion of AA to 5-LO products was initiated by the addition of 10 μL (50 uCi) of 1-^14 C-AA. Products were isolated by acidification and extraction, followed by thin layer chromatography analysis as described above. Radioactive areas corresponding to authentic 5-LO and CO products were quantitated by the Bioscan 2000 Imaging System.
as §1

Structure (SMILES): COc1ccc(-n2nc(CCCOC(=O)N(O)C(C)C)c(Br)c2-c2ccc(Cl)cc2)cc1 [3-G]
- % INHIBITION CO (Procedure II) [1]: 0%
- IC50 ([1]; read-out: IC50 CO (Procedure II)): 3170 nM
- IC50 [2]: 1500 nM
